{
  "source": "PubChem BioAssay (NCI)",
  "assay_in_all_cases": "DTP human tumour cell line panel, 48 h",
  "key": {"NCI-H23 lung": {"tested_on": "NCI-H23 lung"}, "NCI-H460 lung": {"tested_on": "NCI-H460 lung"}, "NCI-H522 lung": {"tested_on": "NCI-H522 lung"}, "NCI/ADR-RES ovarian": {"tested_on": "NCI/ADR-RES ovarian"}, "OVCAR-3 ovarian": {"tested_on": "OVCAR-3 ovarian"}, "OVCAR-4 ovarian": {"tested_on": "OVCAR-4 ovarian"}, "OVCAR-5 ovarian": {"tested_on": "OVCAR-5 ovarian"}, "OVCAR-8 ovarian": {"tested_on": "OVCAR-8 ovarian"}, "PC-3 prostate": {"tested_on": "PC-3 prostate"}, "RPMI-8226 leukemia": {"tested_on": "RPMI-8226 leukemia"}, "RXF 393 renal": {"tested_on": "RXF 393 renal"}, "SF-268 CNS": {"tested_on": "SF-268 CNS"}, "SF-295 CNS": {"tested_on": "SF-295 CNS"}, "SF-539 CNS": {"tested_on": "SF-539 CNS"}, "SK-MEL-2 melanoma": {"tested_on": "SK-MEL-2 melanoma"}, "SK-MEL-28 melanoma": {"tested_on": "SK-MEL-28 melanoma"}, "SK-MEL-5 melanoma": {"tested_on": "SK-MEL-5 melanoma"}, "SK-OV-3 ovarian": {"tested_on": "SK-OV-3 ovarian"}, "SN12C renal": {"tested_on": "SN12C renal"}, "SNB-19 CNS": {"tested_on": "SNB-19 CNS"}, "SNB-75 CNS": {"tested_on": "SNB-75 CNS"}, "SR leukemia": {"tested_on": "SR leukemia"}, "SW-620 colon": {"tested_on": "SW-620 colon"}, "T-47D breast": {"tested_on": "T-47D breast"}, "TK-10 renal": {"tested_on": "TK-10 renal"}, "U251 CNS": {"tested_on": "U251 CNS"}, "UACC-257 melanoma": {"tested_on": "UACC-257 melanoma"}, "UACC-62 melanoma": {"tested_on": "UACC-62 melanoma"}, "UO-31 renal": {"tested_on": "UO-31 renal"}},
  "note": "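Method: 48-hour compound exposure of cells in 96-well plates, five concentrations, linear interpolation of endpoints. GI50: concentration for 50% inhibition of growth. The concentration for full growth arrest is given as TGI.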",
  "data": [
    {"smiles": "CN1CCN(Cc2ccc(NC(=O)c3cncc(C#Cc4cnc5ccc(OCC6COC6)nn45)c3)cc2C(F)(F)F)CC1", "values": [
      {"measurement": "GI50", "setting": "NCI-H23 lung", "value": 151, "unit": "nM"},
      {"measurement": "TGI", "setting": "NCI-H23 lung", "value": 693, "unit": "nM"},
      {"measurement": "GI50", "setting": "NCI-H460 lung", "value": 189, "unit": "nM"},
      {"measurement": "TGI", "setting": "NCI-H460 lung", "value": 676, "unit": "nM"},
      {"measurement": "GI50", "setting": "NCI-H522 lung", "value": 97.7, "unit": "nM"},
      {"measurement": "TGI", "setting": "NCI-H522 lung", "value": 226, "unit": "nM"},
      {"measurement": "GI50", "setting": "NCI/ADR-RES ovarian", "value": 195, "unit": "nM"},
      {"measurement": "TGI", "setting": "NCI/ADR-RES ovarian", "value": 1260, "unit": "nM"},
      {"measurement": "GI50", "setting": "OVCAR-3 ovarian", "value": 214, "unit": "nM"},
      {"measurement": "TGI", "setting": "OVCAR-3 ovarian", "value": 705, "unit": "nM"},
      {"measurement": "GI50", "setting": "OVCAR-4 ovarian", "value": 193, "unit": "nM"},
      {"measurement": "TGI", "setting": "OVCAR-4 ovarian", "value": 979, "unit": "nM"},
      {"measurement": "GI50", "setting": "OVCAR-5 ovarian", "value": 222, "unit": "nM"},
      {"measurement": "TGI", "setting": "OVCAR-5 ovarian", "value": 812, "unit": "nM"},
      {"measurement": "GI50", "setting": "OVCAR-8 ovarian", "value": 163, "unit": "nM"},
      {"measurement": "TGI", "setting": "OVCAR-8 ovarian", "value": 600, "unit": "nM"},
      {"measurement": "GI50", "setting": "PC-3 prostate", "value": 244, "unit": "nM"},
      {"measurement": "TGI", "setting": "PC-3 prostate", "value": 1450, "unit": "nM"},
      {"measurement": "GI50", "setting": "RPMI-8226 leukemia", "value": 269, "unit": "nM"},
      {"measurement": "TGI", "setting": "RPMI-8226 leukemia", "value": 1260, "unit": "nM"},
      {"measurement": "GI50", "setting": "RXF 393 renal", "value": 159, "unit": "nM"},
      {"measurement": "TGI", "setting": "RXF 393 renal", "value": 457, "unit": "nM"},
      {"measurement": "GI50", "setting": "SF-268 CNS", "value": 189, "unit": "nM"},
      {"measurement": "TGI", "setting": "SF-268 CNS", "value": 629, "unit": "nM"},
      {"measurement": "GI50", "setting": "SF-295 CNS", "value": 443, "unit": "nM"},
      {"measurement": "TGI", "setting": "SF-295 CNS", "value": 1120, "unit": "nM"},
      {"measurement": "GI50", "setting": "SF-539 CNS", "value": 165, "unit": "nM"},
      {"measurement": "TGI", "setting": "SF-539 CNS", "value": 795, "unit": "nM"},
      {"measurement": "GI50", "setting": "SK-MEL-2 melanoma", "value": 103, "unit": "nM"},
      {"measurement": "TGI", "setting": "SK-MEL-2 melanoma", "value": 237, "unit": "nM"},
      {"measurement": "GI50", "setting": "SK-MEL-28 melanoma", "value": 218, "unit": "nM"},
      {"measurement": "TGI", "setting": "SK-MEL-28 melanoma", "value": 809, "unit": "nM"},
      {"measurement": "GI50", "setting": "SK-MEL-5 melanoma", "value": 552, "unit": "nM"},
      {"measurement": "TGI", "setting": "SK-MEL-5 melanoma", "value": 1170, "unit": "nM"},
      {"measurement": "GI50", "setting": "SK-OV-3 ovarian", "value": 244, "unit": "nM"},
      {"measurement": "TGI", "setting": "SK-OV-3 ovarian", "value": 927, "unit": "nM"},
      {"measurement": "GI50", "setting": "SN12C renal", "value": 141, "unit": "nM"},
      {"measurement": "TGI", "setting": "SN12C renal", "value": 609, "unit": "nM"},
      {"measurement": "GI50", "setting": "SNB-19 CNS", "value": 363, "unit": "nM"},
      {"measurement": "TGI", "setting": "SNB-19 CNS", "value": 2050, "unit": "nM"},
      {"measurement": "GI50", "setting": "SNB-75 CNS", "value": 182, "unit": "nM"},
      {"measurement": "TGI", "setting": "SNB-75 CNS", "value": 541, "unit": "nM"},
      {"measurement": "GI50", "setting": "SR leukemia", "value": 147, "unit": "nM"},
      {"measurement": "TGI", "setting": "SR leukemia", "value": 517, "unit": "nM"},
      {"measurement": "GI50", "setting": "SW-620 colon", "value": 160, "unit": "nM"},
      {"measurement": "TGI", "setting": "SW-620 colon", "value": 599, "unit": "nM"},
      {"measurement": "GI50", "setting": "T-47D breast", "value": 355, "unit": "nM"},
      {"measurement": "TGI", "setting": "T-47D breast", "value": 1430, "unit": "nM"},
      {"measurement": "GI50", "setting": "TK-10 renal", "value": 187, "unit": "nM"},
      {"measurement": "TGI", "setting": "TK-10 renal", "value": 570, "unit": "nM"},
      {"measurement": "GI50", "setting": "U251 CNS", "value": 251, "unit": "nM"},
      {"measurement": "TGI", "setting": "U251 CNS", "value": 935, "unit": "nM"},
      {"measurement": "GI50", "setting": "UACC-257 melanoma", "value": 384, "unit": "nM"},
      {"measurement": "TGI", "setting": "UACC-257 melanoma", "value": 1070, "unit": "nM"},
      {"measurement": "GI50", "setting": "UACC-62 melanoma", "value": 155, "unit": "nM"},
      {"measurement": "TGI", "setting": "UACC-62 melanoma", "value": 717, "unit": "nM"},
      {"measurement": "GI50", "setting": "UO-31 renal", "value": 167, "unit": "nM"},
      {"measurement": "TGI", "setting": "UO-31 renal", "value": 558, "unit": "nM"}
    ]}
  ]
}
